# In patent US4241069A, “3-Methylene flavanones and 3-methylene chromanones” (Miles Laboratories, Inc., priority 1979, dated 1980):
# Assays:
# S. aureus NRRL B2747 [1] = assay: MIC, agar incorporation method; format: cell-based, Staphylococcus aureus; details: Staphylococcus aureus, NRRLB2747, 32° C., 24 hours, read-out: Minimal Inhibitory Concentration
# Protocol: (§1) The compounds of the present invention were tested for their ability to inhibit the growth of microorganisms by in vitro tests. Generally the in vitro tests involve growing representative microorganisms under conditions favorable to such growth and measuring the effectiveness of one or more compounds in inhibiting or destroying the growth of the microorganisms. The microorganisms used include representative bacteria, fungi and yeasts.
# (§2) A representative selection of the test microorganisms were cultured in a nutrient broth, such as, for example, Eugon, commercially available from Difco Laboratories, Detroit, Michigan. Bacteria and Candida species were cultured for 24 hours at 32°-37° C. and fungi were cultured for approximately one week at 32° C. Inocula were prepared by suspending the growth or spores from a slant culture in sufficient sterile normal (0.9 percent) saline or Eugon broth, to yield cell or spore concentrations of 1,000,000 cells per milliliter. Anaerobic bacteria were cultured for 48-72 hours at 32°-37° C. in a thioglycollate containing medium, for example, Fluid Thioglycollate medium or NIH thioglycollate broth, commercially available from Difco Laboratories.
# (§3) The compounds of the present invention were tested for activity against bacteria, yeasts and fungi by the agar incorporation method described below. MA 1347, 3-(dimethylaminomethyl)flavanone (disclosed in U.S. Pat. No. 3,753,985) was used as a comparative standard along with controls for each solvent system used.
# (§4) A series of agar plates containing two-fold dilutions of each compound to be tested, ranging in concentration from 100 to 3.1 mcg/ml of agar medium was prepared. Aliquots of each concentration (100, 50, 25, 12.5, 6.2, and 3.1) prepared in N,N-dimethylformamide or 50 percent aqueous DMF were added to liquid Eugon agar at 48° C. (one part test solution to 100 parts agar). In some cases, tests with further dilutions to 0.125 mcg/ml were conducted. The agar medium, containing the 3-methylene flavanone or chromanone compound to be tested, was then dispensed into petri dishes and allowed to solidify. The solidified plates were kept overnight at room temperatures to dry the surface of the agar.
# (§5) The agar plates were then inoculated with a drop of the standardized cell or spore suspension. Inoculated plates were incubated at 32° C. The inhibition end-point or minimum inhibitory concentration (MIC) shown in Table D represent the lowest concentration of test compound which inhibited the growth of the microorganism. Visual determination of growth inhibition was used. Bacteria and yeast end-points were determined after 24 hours incubation; molds, dermatophytes and anaerobes after 48-72 hours incubation. MIC values shown as ranges represent the extremes found in repeat assays. Virtually all such values were written plus or minus one dilution, the accepted variation of a two-fold dilution assay.
# [2] = tested on: Escherichia coli ATCC 8739; assay: MIC, agar incorporation method; format: cell-based; details: ATCC8739, 32° C., 24 hours, read-out: Minimal Inhibitory Concentration
# Protocol: as §1, §2, §3, §4, §5
# [3] = tested on: Trichophyton mentagrophytes ATCC 4807; assay: MIC, agar incorporation method; format: cell-based; details: ATCC4807, 32° C., 48-72 hours, read-out: Minimal Inhibitory Concentration
# Protocol: as §1, §2, §3, §4, §5
# [4] = tested on: Microsporum gypseum ATCC 14683; assay: MIC, agar incorporation method; format: cell-based; details: Nannizzia gypsea, ATCC14683, 32° C., 48-72 hours; read-out: Minimal Inhibitory Concentration
# Protocol: as §1, §2, §3, §4, §5
# [5] = tested on: Pseudomonas aeruginosa ATCC 14502; assay: MIC, agar incorporation method; format: cell-based; details: ATCC14502, 32° C., 24 hours, read-out: Minimal Inhibitory Concentration
# Protocol: as §1, §2, §3, §4, §5
# A. fumigatus NRRL 163 = assay: MIC, agar incorporation method; format: cell-based; details: Aspergillus fumigatus, NRRL163, NRRL 163; 32° C., 48-72 hours; read-out: Minimal Inhibitory Concentration
# Protocol: as §1, §2, §3, §4, §5
# [6] = tested on: Candida albicans ATCC 10231; assay: MIC, agar incorporation method; format: cell-based; details: ATCC10231, C. albicans ATCC 10231, 32° C., 24 hours, read-out: Minimal Inhibitory Concentration
# Protocol: as §1, §2, §3, §4, §5
# C. albicans NRRL Y-477 = assay: MIC, agar incorporation method; format: cell-based; details: Candida albicans, NRRLY477, 32° C., 24 hours, read-out: Minimal Inhibitory Concentration
# Protocol: as §1, §2, §3, §4, §5
# [7] = tested on: Staphylococcus aureus ATCC 6538; assay: MIC, agar incorporation method; format: cell-based; details: Staphylococcus aureus, ATCC6538; S. aureus ATCC 6538; 32° C., 24 hours; read-out: Minimal Inhibitory Concentration
# Protocol: as §1, §2, §3, §4, §5
# C. tropicalis NRRL Y1410 = assay: MIC, agar incorporation method; format: cell-based; details: Candida tropicalis, NRRLY1410; 32° C., 24 hours; read-out: Minimal Inhibitory Concentration
# Protocol: as §1, §2, §3, §4, §5
# T. mentagrophytes CDC = assay: MIC, agar incorporation method; format: cell-based; details: Trichophyton mentagrophytes, 32° C., 48-72 hours, read-out: Minimal Inhibitory Concentration
# Protocol: as §1, §2, §3, §4, §5
# [8] = tested on: Streptococcus faecalis ATCC 10541; assay: MIC, agar incorporation method; format: cell-based; details: Enterococcus faecalis, ATCC10541; 32° C., 24 hours; read-out: Minimal Inhibitory Concentration
# Protocol: as §1, §2, §3, §4, §5
# C. guillermondii VM 42 = assay: MIC, agar incorporation method; format: cell-based; details: 32° C., 24 hours; read-out: Minimal Inhibitory Concentration
# Protocol: as §1, §2, §3, §4, §5
# C. krusei VM 29B = assay: MIC, agar incorporation method; format: cell-based; details: Pichia kudriavzevii, VM29B; 32° C., 24 hours; read-out: Minimal Inhibitory Concentration
# Protocol: as §1, §2, §3, §4, §5
# T. tonsurans ATCC 10217 = assay: MIC, agar incorporation method; format: cell-based; details: Trichophyton tonsurans, ATCC10217; 32° C., 48-72 hours; read-out: Minimal Inhibitory Concentration
# Protocol: as §1, §2, §3, §4, §5
# T. mentagrophytes TM-2 = assay: MIC, agar incorporation method; format: cell-based; details: Trichophyton mentagrophytes, TM2, 32° C., 48-72 hours, read-out: Minimal Inhibitory Concentration
# Protocol: as §1, §2, §3, §4, §5
# [9] = tested on: Clostridium sporogenes ATCC 11437; assay: MIC, agar incorporation method, anaerobic; format: cell-based; details: ATCC11437, 48 hours at 35° C., GasPak Anaerobic Jar, read-out: Minimal Inhibitory Concentration
# Protocol: as §1, §2, §3, §4, §5
# (§6) *Anaerobic: 48 hours incubation at 35° C. GasPak Anaerobic Jar
# [10] = tested on: Propionobacterium acnes ATCC 6919; assay: MIC, agar incorporation method, anaerobic; format: cell-based; details: 48 hours at 35° C., GasPak Anaerobic Jar, read-out: Minimal Inhibitory Concentration
# Protocol: as §1, §2, §3, §4, §5, §6
# S. aureus NRRL B2747 [11] = assay: MIC, agar incorporation method, anaerobic; format: cell-based; details: Staphylococcus aureus, NRRLB2747, 48 hours at 35° C., GasPak Anaerobic Jar, read-out: Minimal Inhibitory Concentration
# Protocol: as §1, §2, §3, §4, §5, §6
# [12] = tested on: Bacteriodides fragilis ATCC 8482; assay: MIC, agar incorporation method, anaerobic; format: cell-based; details: 48 hours at 35° C., GasPak Anaerobic Jar, read-out: Minimal Inhibitory Concentration
# Protocol: as §1, §2, §3, §4, §5, §6
# [13] = tested on: Sarcina subflava ATCC 7468; assay: MIC, agar incorporation method; format: cell-based; details: ATCC7468, 32° C., 24 hours, read-out: Minimal Inhibitory Concentration
# Protocol: as §1, §2, §3, §4, §5
# [14] = tested on: Aspergillus niger ATCC 16404; assay: MIC, agar incorporation method; format: cell-based; details: ATCC16404, 32° C., 48-72 hours, read-out: Minimal Inhibitory Concentration
# Protocol: as §1, §2, §3, §4, §5
# T. rubrum ATCC 10218 = assay: MIC, agar incorporation method; format: cell-based; details: Trichophyton rubrum, ATCC10218; 32° C., 48-72 hours; read-out: Minimal Inhibitory Concentration
# Protocol: as §1, §2, §3, §4, §5
# [15] = tested on: Proteus vulgaris NRRL B123; assay: MIC, agar incorporation method; format: cell-based; details: NRRLB123, 32° C., 24 hours, read-out: Minimal Inhibitory Concentration
# Protocol: as §1, §2, §3, §4, §5
# A. fumigatus NRRL 165 = assay: MIC, agar incorporation method; format: cell-based; details: Aspergillus fumigatus, NRRL165, 32° C., 48-72 hours, read-out: Minimal Inhibitory Concentration
# Protocol: as §1, §2, §3, §4, §5
# [16] = tested on: Clostridium acetobutylicum ATCC 824; assay: MIC, agar incorporation method, anaerobic; format: cell-based; details: ATCC824, 48 h, 48 hours at 35° C., GasPak Anaerobic Jar, read-out: Minimal Inhibitory Concentration
# Protocol: as §1, §2, §3, §4, §5, §6
Structure (SMILES),MIC (S. aureus NRRL B2747 [1]) [µg/mL],MIC [2] [µg/mL],MIC [3] [µg/mL],MIC [4] [µg/mL],MIC [5] [µg/mL],MIC (A. fumigatus NRRL 163) [µg/mL],MIC [6] [µg/mL],MIC (C. albicans NRRL Y-477) [µg/mL],MIC [7] [µg/mL],MIC (C. tropicalis NRRL Y1410) [µg/mL],MIC (T. mentagrophytes CDC) [µg/mL],MIC [8] [µg/mL],MIC (C. guillermondii VM 42) [µg/mL],MIC (C. krusei VM 29B) [µg/mL],MIC (T. tonsurans ATCC 10217) [µg/mL],MIC (T. mentagrophytes TM-2) [µg/mL],MIC [10] [µg/mL],MIC [13] [µg/mL],MIC [14] [µg/mL],MIC (T. rubrum ATCC 10218) [µg/mL],other results
"C=C1C(=O)c2ccccc2OC1c1ccccc1 (stereo not shown) [Ex. 1, 3-methylene flavanone]",12.5,> 100,12.5,6.2 to 12.5,> 100,6.2,50,50,6.2,100,12.5,100,100,50,6.2,12.5,12.5,,,,MIC [9]: 12.5 µg/mL; MIC (S. aureus NRRL B2747 [11]): 25 µg/mL; MIC [12]: 1.56 µg/mL
"C=C1C(=O)c2ccccc2OC1c1ccc(Cl)cc1 (stereo not shown) [Ex. 3, 4'-chloro-3-methylene flavanone]",3.1,> 100,6.2,6.2,> 100,6.2,12.5,12.5,≤ 3.1,25,6.2,25,25,12.5,,6.2,≤ 100,6.2,25,≤ 3.1,MIC [15]: > 100 µg/mL; MIC (A. fumigatus NRRL 165): 50 µg/mL; MIC [16]: ≤ 100 µg/mL
"C=C1C(=O)c2ccccc2OC1c1ccc(Cl)cc1Cl (stereo not shown) [Ex. 4, 2',4'-dichloro-3-methylene flavanone]",1.56,> 100,12.5,6.2 to 12.5,> 100,50,25,25,1.56,50,12.5 to 25,25 to 50,50,25 to 50,6.2,12.5 to 25,3.1,3.1,100,12.5,MIC [9]: ≤ 0.78 µg/mL; MIC (S. aureus NRRL B2747 [11]): 6.2 µg/mL; MIC [12]: 3.1 µg/mL
"C=C1C(=O)c2ccccc2OC1c1ccc([N+](=O)[O-])cc1 (stereo not shown) [Ex. 10, 4'-nitro-3-methylene flavanone]",6.2,> 100,6.2,6.2,> 100,12.5,25,25,≤ 3.1,50,6.2,50,50,25,,6.2,≤ 100,12.5,50,≤ 3.1,MIC [15]: > 100 µg/mL; MIC (A. fumigatus NRRL 165): 100 µg/mL; MIC [16]: ≤ 100 µg/mL
"C=C1C(=O)c2cc(Br)ccc2OC1c1ccc(Br)cc1 (stereo not shown) [Ex. 17, 4',6-dibromo-3-methylene flavanone]",12.5,> 100,12.5,50,> 100,> 100,100,100,6.2,> 100,50,> 100,> 100,100,,25,,,> 100,25,MIC (A. fumigatus NRRL 165): > 100 µg/mL
"C=C1C(=O)c2ccccc2OC1(c1ccccc1)c1cccs1 (stereo not shown) [Ex. 21, 3-Methylene-2-(2-thienyl) flavanone]",0.5,> 100,12.5,6.2,> 100,100,> 100,> 100,0.5,> 100,12.5,1,> 100,> 100,6.2,12.5,1,1.56,> 100,,MIC [9]: 0.5 µg/mL; MIC (S. aureus NRRL B2747 [11]): 1.56 µg/mL; MIC [12]: 0.25 µg/mL
"C=C1C(=O)c2ccccc2OC1(c1ccccc1)c1ccncc1 (stereo not shown) [Ex. 22, 3-Methylene-2-(4-pyridyl) flavanone]",0.78,> 100,12.5,12.5,> 100,25,100,100,0.78,> 100,25,3.1,> 100,100,6.2,12.5,1,3.1,> 100,,MIC [9]: 0.5 µg/mL; MIC (S. aureus NRRL B2747 [11]): 1 µg/mL; MIC [12]: 0.25 µg/mL
"C=C1C(=O)c2ccccc2OC1c1ccc2ccccc2c1 (stereo not shown) [compound 24, 3-methylene-2-(2-naphthyl) chromanone]",6.2,> 100,12.5,12.5,> 100,,> 100,100,≤ 3.1,> 100,25,50,> 100,25,,12.5,,,> 100,6.2,MIC (A. fumigatus NRRL 165): > 100 µg/mL
